Earlier results as cited in patent publication US10551383B2, “Methods of detecting a polypeptide having anaplastic lymphoma kinase activity in kidney cancer” (Cell Signaling Technology, Inc., priority 2010, dated 2020).

Test system: HGF-stimulated Madin-Darby Canine Kidney (MDCK) cells
Settings: disclosed in U.S. Pub. No. 2008/0300273

In the case of `C[C@@H](Oc1cc(-c2cnn(C3CCNCC3)c2)cnc1N)c1c(Cl)ccc(F)c1Cl` [PF-02341066, Crizotinib], the cell colony scattering is given as “able to reduce cell colony scattering”.
